Experimental data reported in PubChem BioAssay (NCI).
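Five compound concentrations were applied to cells in 96-well plates for 48 hours; endpoints were derived by simple linear interpolation of the resulting dose-response curve. At the GI50, growth is halved. TGI: total growth inhibition.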

Tests used:
Assay in all cases: growth of human tumour cells (NCI), 48 h
786-0 renal = test system: 786-0 renal
A498 renal = test system: A498 renal
A549 NSCLC = test system: A549 NSCLC
ACHN renal = test system: ACHN renal
BT-549 breast = test system: BT-549 breast
CAKI-1 renal = test system: CAKI-1 renal
CCRF-CEM leukemia = test system: CCRF-CEM leukemia
COLO 205 colon = test system: COLO 205 colon
DU-145 prostate = test system: DU-145 prostate
EKVX NSCLC = test system: EKVX NSCLC
HCC-2998 colon = test system: HCC-2998 colon
HCT-116 colon = test system: HCT-116 colon
HCT-15 colon = test system: HCT-15 colon
HL-60(TB) leukemia = test system: HL-60(TB) leukemia
HOP-62 NSCLC = test system: HOP-62 NSCLC
HOP-92 NSCLC = test system: HOP-92 NSCLC
HS 578T breast = test system: HS 578T breast
HT29 colon = test system: HT29 colon
IGROV1 ovarian = test system: IGROV1 ovarian
K-562 leukemia = test system: K-562 leukemia
KM12 colon = test system: KM12 colon
LOX IMVI melanoma = test system: LOX IMVI melanoma
M14 melanoma = test system: M14 melanoma
MALME-3M melanoma = test system: MALME-3M melanoma
MCF7 breast = test system: MCF7 breast
MDA-MB-231 breast = test system: MDA-MB-231 breast
MDA-MB-435 = test system: MDA-MB-435
MOLT-4 leukemia = test system: MOLT-4 leukemia
NCI-H226 lung = test system: NCI-H226 lung
NCI-H23 lung = test system: NCI-H23 lung
NCI-H460 lung = test system: NCI-H460 lung
NCI-H522 lung = test system: NCI-H522 lung
NCI/ADR-RES ovarian = test system: NCI/ADR-RES ovarian
OVCAR-3 ovarian = test system: OVCAR-3 ovarian
OVCAR-4 ovarian = test system: OVCAR-4 ovarian
OVCAR-5 ovarian = test system: OVCAR-5 ovarian
OVCAR-8 ovarian = test system: OVCAR-8 ovarian
PC-3 prostate = test system: PC-3 prostate
RPMI-8226 leukemia = test system: RPMI-8226 leukemia
RXF 393 renal = test system: RXF 393 renal
SF-268 CNS = test system: SF-268 CNS
SF-295 CNS = test system: SF-295 CNS
SF-539 CNS = test system: SF-539 CNS
SK-MEL-2 melanoma = test system: SK-MEL-2 melanoma
SK-MEL-28 melanoma = test system: SK-MEL-28 melanoma
SK-MEL-5 melanoma = test system: SK-MEL-5 melanoma
SK-OV-3 ovarian = test system: SK-OV-3 ovarian
SN12C renal = test system: SN12C renal
SNB-19 CNS = test system: SNB-19 CNS
SNB-75 CNS = test system: SNB-75 CNS
SR leukemia = test system: SR leukemia
SW-620 colon = test system: SW-620 colon
T-47D breast = test system: T-47D breast
TK-10 renal = test system: TK-10 renal
U251 CNS = test system: U251 CNS
UACC-257 melanoma = test system: UACC-257 melanoma
UACC-62 melanoma = test system: UACC-62 melanoma
UO-31 renal = test system: UO-31 renal

`O=C(Nc1ccc(Oc2ccc3nc(NC(=O)c4ccccc4)[nH]c3c2)cc1)Nc1cc(C(F)(F)F)ccc1F` was tested, and the GI50 (786-0 renal) was 7.32 µM, the TGI (786-0 renal) was greater than 25 µM and the GI50 (A498 renal) was 2.57 µM. It also gave a TGI (A498 renal) greater than 25 µM, a GI50 (A549 NSCLC) of 0.846 µM and a TGI (A549 NSCLC) of 13.3 µM. It also gave a GI50 (ACHN renal) of 1.84 µM, a TGI (ACHN renal) greater than 25 µM and a GI50 (BT-549 breast) of 1.19 µM. It also gave a TGI (BT-549 breast) of 8.57 µM, a GI50 (CAKI-1 renal) of 1.09 µM and a TGI (CAKI-1 renal) of 7.8 µM. For the same compound, the GI50 (CCRF-CEM leukemia) was 0.657 µM, the TGI (CCRF-CEM leukemia) was greater than 9.17 µM and the GI50 (COLO 205 colon) was 1.12 µM. For the same compound, the TGI (COLO 205 colon) was 6.7 µM, the GI50 (DU-145 prostate) was 1.32 µM and the TGI (DU-145 prostate) was 16.6 µM. For the same compound, the GI50 (EKVX NSCLC) was 0.969 µM, the TGI (EKVX NSCLC) was greater than 25 µM and the GI50 (HCC-2998 colon) was 2.38 µM. For the same compound, the TGI (HCC-2998 colon) was greater than 21.5 µM, the GI50 (HCT-116 colon) was 1.09 µM and the TGI (HCT-116 colon) was greater than 18.1 µM. For the same compound, the GI50 (HCT-15 colon) was 2.07 µM, the TGI (HCT-15 colon) was greater than 25 µM and the GI50 (HL-60(TB) leukemia) was 0.738 µM. The TGI (HL-60(TB) leukemia) was 3.29 µM, the GI50 (HOP-62 NSCLC) was 0.871 µM and the TGI (HOP-62 NSCLC) was 6.65 µM. It also gave a GI50 (HOP-92 NSCLC) of 0.887 µM, a TGI (HOP-92 NSCLC) of 8.81 µM and a GI50 (HS 578T breast) of 1.07 µM. It also gave a TGI (HS 578T breast) of 11.6 µM, a GI50 (HT29 colon) of 1.38 µM and a TGI (HT29 colon) greater than 25 µM. For the same compound, the GI50 (IGROV1 ovarian) was 1.47 µM, the TGI (IGROV1 ovarian) was greater than 21.1 µM and the GI50 (K-562 leukemia) was 0.262 µM. For the same compound, the TGI (K-562 leukemia) was greater than 7.59 µM, the GI50 (KM12 colon) was 0.244 µM and the TGI (KM12 colon) was 2 µM. It also gave a GI50 (LOX IMVI melanoma) of 0.97 µM, a TGI (LOX IMVI melanoma) greater than 10.8 µM and a GI50 (M14 melanoma) of 0.997 µM. The TGI (M14 melanoma) was 9.29 µM, the GI50 (MALME-3M melanoma) was 1.3 µM and the TGI (MALME-3M melanoma) was 11.9 µM. For the same compound, the GI50 (MCF7 breast) was 0.758 µM, the TGI (MCF7 breast) was 5.14 µM and the GI50 (MDA-MB-231 breast) was 2.05 µM. The TGI (MDA-MB-231 breast) was greater than 22.9 µM, the GI50 (MDA-MB-435) was 0.709 µM and the TGI (MDA-MB-435) was 2.94 µM. For the same compound, the GI50 (MOLT-4 leukemia) was 0.68 µM, the TGI (MOLT-4 leukemia) was 3.83 µM and the GI50 (NCI-H226 lung) was 0.603 µM. For the same compound, the TGI (NCI-H226 lung) was 3.97 µM, the GI50 (NCI-H23 lung) was 0.93 µM and the TGI (NCI-H23 lung) was 13 µM. It also gave a GI50 (NCI-H460 lung) of 1.59 µM, a TGI (NCI-H460 lung) greater than 22.4 µM and a GI50 (NCI-H522 lung) of 1.6 µM. For the same compound, the TGI (NCI-H522 lung) was greater than 14.9 µM, the GI50 (NCI/ADR-RES ovarian) was 0.771 µM and the TGI (NCI/ADR-RES ovarian) was 3.38 µM. The GI50 (OVCAR-3 ovarian) was 1.04 µM, the TGI (OVCAR-3 ovarian) was 6.12 µM and the GI50 (OVCAR-4 ovarian) was 0.678 µM. For the same compound, the TGI (OVCAR-4 ovarian) was 2.71 µM, the GI50 (OVCAR-5 ovarian) was 4.41 µM and the TGI (OVCAR-5 ovarian) was greater than 25 µM. It also gave a GI50 (OVCAR-8 ovarian) of 0.764 µM, a TGI (OVCAR-8 ovarian) of 5.08 µM and a GI50 (PC-3 prostate) of 0.624 µM. It also gave a TGI (PC-3 prostate) of 2.76 µM, a GI50 (RPMI-8226 leukemia) of 0.792 µM and a TGI (RPMI-8226 leukemia) of 3.86 µM. It also gave a GI50 (RXF 393 renal) of 1.11 µM, a TGI (RXF 393 renal) of 8.49 µM and a GI50 (SF-268 CNS) of 2.03 µM. The TGI (SF-268 CNS) was 24.4 µM, the GI50 (SF-295 CNS) was 0.71 µM and the TGI (SF-295 CNS) was 4.49 µM. It also gave a GI50 (SF-539 CNS) of 1.81 µM, a TGI (SF-539 CNS) of 18.5 µM and a GI50 (SK-MEL-2 melanoma) of 0.832 µM. For the same compound, the TGI (SK-MEL-2 melanoma) was 3.63 µM, the GI50 (SK-MEL-28 melanoma) was 1.61 µM and the TGI (SK-MEL-28 melanoma) was 12.9 µM. The GI50 (SK-MEL-5 melanoma) was 0.543 µM, the TGI (SK-MEL-5 melanoma) was 1.83 µM and the GI50 (SK-OV-3 ovarian) was 4.38 µM. The TGI (SK-OV-3 ovarian) was 16.5 µM, the GI50 (SN12C renal) was 1.75 µM and the TGI (SN12C renal) was greater than 25 µM. For the same compound, the GI50 (SNB-19 CNS) was 5.56 µM, the TGI (SNB-19 CNS) was greater than 25 µM and the GI50 (SNB-75 CNS) was 1.3 µM. The TGI (SNB-75 CNS) was 10 µM, the GI50 (SR leukemia) was 3.09 µM and the TGI (SR leukemia) was 20.2 µM. It also gave a GI50 (SW-620 colon) of 1.27 µM, a TGI (SW-620 colon) greater than 25 µM and a GI50 (T-47D breast) of 0.783 µM. The TGI (T-47D breast) was 3.17 µM, the GI50 (TK-10 renal) was 2.61 µM and the TGI (TK-10 renal) was 22 µM. For the same compound, the GI50 (U251 CNS) was 1.28 µM, the TGI (U251 CNS) was 21.6 µM and the GI50 (UACC-257 melanoma) was 1.39 µM. The TGI (UACC-257 melanoma) was 11.3 µM, the GI50 (UACC-62 melanoma) was 0.818 µM and the TGI (UACC-62 melanoma) was 4.01 µM. It also gave a GI50 (UO-31 renal) of 1.31 µM and a TGI (UO-31 renal) of 15.6 µM.
